Results as given in US11058668B2 (EIDOS THERAPEUTICS, INC., priority 2018, dated 2021).
Values joined by “and” are separate entries in the source; they are usually repeats but may differ in a detail not shown here. Equal entries are not always repeated. Where two headings read alike, the source gives them in different places.

Columns and labels:
TTR [1] = target: TTR (Homo sapiens, UniProt P02766); assay: Isothermal titration calorimetry (ITC) with TTR in buffer; details: 25° C.
Procedure: (§4) Isothermal Titration Calorimetry (ITC). Binding experiments were performed using MicroCal PEAQ-ITC at 25° C. […] 19 injections of ligand (2.0 μL each) were injected into the ITC cell (at 25° C.) to the point that TTR was fully saturated with ligand. Calorimetric data were plotted and fitted using the standard single-site binding model.

tetrameric TTR [2] = target: T1, tetrameric TTR (Homo sapiens, UniProt P02766, V50M); assay: Phase 2 study, fluorescence probe (FPE) assay ex vivo; type: in vivo; details: individual with V30M TTR mutation, 800 mg b.i.d.
T1 construct: monitoring TTR serum concentrations in trial participants; from tissue; host or cells: serum / plasma of ATTR-CM patients
Procedure: (§1) Aliquots of each serum sample are plated in 96 well plates. The fluorescence changes (λex=328 nm and λem=384 nm) after addition of probe are monitored every 15 min using a fluorescent capable microplate for 6 hr at RT.
(§2) The phase 2 clinical study was performed essentially as described in Example 3. A total of 49 patents were included instead of 45: 16 receiving 400 mg bid; 16 receiving 800 mg bid; and 17 receiving placebo.
(§3) TTR stabilization was measured ex vivo using the FPE and Western blot assays described at the beginning of the examples section. TTR stabilization was measured in vivo by monitoring TTR serum concentrations in trial participants.

[3] = target: human serum albumin (HSA) (Homo sapiens, UniProt P02768); assay: biochemical
Procedure: as §4

TTR [4] = target: T2, TTR (Macaca fascicularis, UniProt Q8HXW1); assay: Single dose study in monkeys, FPE assay on serum; type: in vivo, cynomolgus monkey
T2 construct: from tissue; host or cells: serum of dosed male cynomolgus monkeys
Procedure: There was a washout period of two weeks between the two phases. Blood samples were collected at pre-dose and at approximately 0.083 (IV only), 0.25, 0.5, 1, 2, 4, 8, 12, 24, 48, 72 and 96 hours post-dose. Plasma samples were assayed for AG10 and AG10 acylglucuronide and serum was tested in FPE assay.

[5] = pKa values of stabilizers; type: physicochemical; details: carboxylic acid group
TTR [6] = target: T3, TTR (Canis lupus familiaris, UniProt A0A8I3NFK0); assay: 7-day repeat oral dosing in dogs, TTR occupancy by FPE; type: in vivo, beagle dog
T3 construct: from tissue; host or cells: serum of orally dosed beagle dogs
Procedure: FPE assay for binding TTR in buffer and human or dog serum. […] The FPE probe is a thioester TTR ligand that is not fluorescent by itself, however upon binding to the T4 binding site of TTR it covalently modifies lysine 15 (K15), creating a fluorescent conjugate. Ligands that bind to the T4 site of TTR will decrease FPE probe binding as observed by lower fluorescence. The FPE assay was also adapted for use with dog serum. FPE with TTR in buffer: An aliquot of 98 μL of TTR in PBS (pH 7.4, final concentration: 2.5 μM) was mixed with 1 μL of test compounds (2.5 μM) and 1 μL of FPE probe (0.18 mM stock solution in DMSO: final concentration: 1.8 μM). The change in fluorescence (λex=328 nm and λem=384 nm) were monitored using a microplate spectrophotometer reader (SpectraMax M5) for 6 hr at rt. […] The change in fluorescence (λex=328 nm and λem=384 nm) were monitored using a microplate spectrophotometer reader (SpectraMax M5) for 6 hr at rt.
Blood (approximately 1.5 mL) was collected from a jugular vein into serum separator tubes on study day 1 (predose D1), pre-dose study day 7 (predose D7), and at 1 hr post-dose study day 7 (postdose D7). These serum samples were analyzed for their TTR occupancy using the FPE assay described above.

[7] = Phase 1 (AG10-001) single ascending dose pharmacokinetics; type: in vivo, human; details: for Cmax / Tmax / concentration at 24 hr / AUC(0-t) / AUC(0-inf) / half-life: human, plasma; for concentration at 24 hr: read-out: C24
Procedure: Quantitation was performed using a weighted 1/x^2 linear least squares regression analysis generated from calibration standards prepared on the day of extraction.
One of the SAD cohorts received two 300 mg doses, one under fasted conditions and the other following a high fat test meal after an appropriate washout period.

tetrameric TTR [8] = target: tetrameric TTR (Homo sapiens, UniProt P02766); assay: Phase 2 study, fluorescence probe (FPE) assay ex vivo; type: in vivo; parameters: monitoring TTR serum concentrations in trial participants; from tissue; host or cells: serum / plasma of ATTR-CM patients
Procedure: as §1, §2, §3

[9] = Phase 2 study, tolerability in ATTR-CM patients; type: in vivo, human; details: symptomatic ATTR-CM patients, 28 days
Procedure: Screening and randomization will be followed by a 28-day blinded, placebo-controlled treatment period. Approximately 45 subjects are planned to enroll in the Phase 2 study.
as §2

[10] = both sexes, oral, 300 mg, SAD Cohort 3, 300 mg, Fasted, geometric mean
[11] = both sexes, oral, 300 mg, SAD Cohort 3, 300 mg, Fed (high fat test meal), geometric mean
[12] = both sexes, po, 50 mg, single oral dose 50 mg AG10 HCl, healthy subjects, geometric mean ± SD
[13] = both sexes, po, 150 mg, single oral dose 150 mg AG10 HCl, healthy subjects, geometric mean ± SD
[14] = both sexes, po, 300 mg, single oral dose 300 mg AG10 HCl, healthy subjects, geometric mean ± SD
[15] = both sexes, po, 800 mg, single oral dose 800 mg AG10 HCl, healthy subjects, geometric mean ± SD
[16] = ATTR-CM patients, FPE vs plasma concentration

Chain of human serum albumin (HSA) (P02768 25-609): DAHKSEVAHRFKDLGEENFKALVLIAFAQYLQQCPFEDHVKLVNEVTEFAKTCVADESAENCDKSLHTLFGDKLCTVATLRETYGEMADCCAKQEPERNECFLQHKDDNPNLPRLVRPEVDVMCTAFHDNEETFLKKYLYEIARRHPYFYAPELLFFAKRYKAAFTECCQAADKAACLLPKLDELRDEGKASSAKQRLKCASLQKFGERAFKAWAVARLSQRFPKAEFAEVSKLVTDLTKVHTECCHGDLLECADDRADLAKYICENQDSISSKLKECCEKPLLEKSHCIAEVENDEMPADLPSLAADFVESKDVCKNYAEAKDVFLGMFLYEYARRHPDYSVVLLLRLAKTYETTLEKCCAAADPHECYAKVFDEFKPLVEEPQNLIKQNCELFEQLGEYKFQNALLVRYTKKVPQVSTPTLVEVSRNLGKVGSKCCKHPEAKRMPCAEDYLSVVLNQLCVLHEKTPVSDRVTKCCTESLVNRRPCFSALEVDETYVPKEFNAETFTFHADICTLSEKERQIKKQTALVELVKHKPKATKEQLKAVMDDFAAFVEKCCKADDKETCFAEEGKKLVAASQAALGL

Cc1n[nH]c(C)c1CCCOc1cc(C(=O)O)ccc1F [AG10, 3-(3-(3,5-dimethyl-1H-pyrazol-4-yl)propoxy)-4-fluorobenzoic acid]
ΔH (TTR [1]): -13.60 kcal/mol and -13.6 kcal/mol | target engagement at day 14 (FPE) (tetrameric TTR [2]): near complete target engagement | Kd [3]: ~8 µM | binding to TTR in serum (FPE assay) (TTR [4]; 5 mg/kg per oral, 3 male monkeys): effectively binds to TTR in monkey serum | TTR stabilization versus dose (FPE assay) (TTR [4]; orally administered): stabilized TTR in a dose dependent manner | pKa [5]: 4.13 | TTR occupancy at the steady state trough (TTR [6]; 50, 100, 200 mg/kg/d oral, day 7 pre-dose): 81-94% | TTR occupancy at steady state Cmax (TTR [6]; all AG10 treated groups, day 7 post-dose (1 hr)): > 97% | food effect on the pharmacokinetics ([7]; 300 mg, fed versus fasted state): minimal food effect | mean Tmax ([7]; SAD cohorts 1-4, 50-800 mg AG10 HCl oral): under one | Cmax [7, 10]: 15.1 µM | Tmax [7, 10]: 42.4 min | concentration at 24 hr [7, 10]: 2190 nM | Cmax [7, 11]: 10.2 µM | Tmax [7, 11]: 95.4 min | AUC(0-t) ([7]; both sexes, oral, 300 mg, SAD Cohort 3, 300 mg, Fed (high fat test meal), geometric mean, read-out: AUC0-24): 111 µM·h | concentration at 24 hr [7, 11]: 2690 nM | AUC(0-inf) ([7]; both sexes, po, 50 mg): 97.1 ± 12.1 µM·h | Cmax [7, 12]: 7.2 ± 0.72 µM | Tmax [7, 12]: 53.5 ± 44.2 min | AUC(0-t) ([7]; both sexes, po, 50 mg, single oral dose 50 mg AG10 HCl, healthy subjects, geometric mean ± SD, read-out: AUC0-24): 58.9 ± 4.09 µM·h | AUC(0-t) ([7]; both sexes, po, 50 mg, single oral dose 50 mg AG10 HCl, healthy subjects, geometric mean ± SD, read-out: AUClast): 95 ± 11.8 µM·h | concentration at 24 hr [7, 12]: 1050 ± 130 nM | half-life ([7]; both sexes, po, 50 mg, read-out: T1/2 (converted)): 1500 ± 175 min | AUC(0-inf) ([7]; both sexes, po, 150 mg): 168 ± 46.8 µM·h | Cmax [7, 13]: 11.3 ± 4.76 µM | Tmax [7, 13]: 50.9 ± 58.2 min | AUC(0-t) ([7]; both sexes, po, 150 mg, single oral dose 150 mg AG10 HCl, healthy subjects, geometric mean ± SD, read-out: AUC0-24): 93 ± 16.8 µM·h | AUC(0-t) ([7]; both sexes, po, 150 mg, single oral dose 150 mg AG10 HCl, healthy subjects, geometric mean ± SD, read-out: AUClast): 166 ± 46 µM·h | concentration at 24 hr [7, 13]: 1780 ± 465 nM | half-life ([7]; both sexes, po, 150 mg, read-out: T1/2 (converted)): 1510 ± 215 min | AUC(0-inf) ([7]; both sexes, po, 300 mg): 191 ± 77 µM·h | Cmax [7, 14]: 15.1 ± 3.6 µM | Tmax [7, 14]: 42.4 ± 16.4 min | AUC(0-t) ([7]; both sexes, po, 300 mg, single oral dose 300 mg AG10 HCl, healthy subjects, geometric mean ± SD, read-out: AUC0-24): 100 ± 9.76 µM·h | AUC(0-t) ([7]; both sexes, po, 300 mg, single oral dose 300 mg AG10 HCl, healthy subjects, geometric mean ± SD, read-out: AUClast): 186 ± 73.8 µM·h | concentration at 24 hr [7, 14]: 2190 ± 435 nM | half-life ([7]; both sexes, po, 300 mg, read-out: T1/2 (converted)): 1320 ± 356 min | AUC(0-inf) ([7]; both sexes, po, 800 mg): 414 ± 87.5 µM·h | Cmax [7, 15]: 37.8 ± 11.3 µM | Tmax [7, 15]: 47.6 ± 15.5 min | AUC(0-t) ([7]; both sexes, po, 800 mg, single oral dose 800 mg AG10 HCl, healthy subjects, geometric mean ± SD, read-out: AUC0-24): 176 ± 27.7 µM·h | AUC(0-t) ([7]; both sexes, po, 800 mg, single oral dose 800 mg AG10 HCl, healthy subjects, geometric mean ± SD, read-out: AUClast): 410 ± 81.7 µM·h | concentration at 24 hr [7, 15]: 4510 ± 565 nM | half-life ([7]; both sexes, po, 800 mg, read-out: T1/2 (converted)): 1610 ± 509 min | half-life ([7]; both sexes, po, read-out: elimination half-life): 1320 to 1620 min | AUC(0-t) ([7]; oral, 300 mg, SAD Cohort 3, 300 mg, Fasted, geometric mean, read-out: AUC0-24): 99.6 µM·h | target engagement by day 14 (fluorescence probe assay) (tetrameric TTR [8]; 400 mg b.i.d. and 800 mg b.i.d., trough and peak time points): near full target engagement | blood plasma concentration at which full target engagement occurs (tetrameric TTR [8]; [16]): about 7.5 μM | blood plasma concentration at which significant target engagement occurs (tetrameric TTR [8]; [16]): ~5 µM | tolerability [9]: well tolerated
